Like-named read-outs stand apart in the source and are kept apart here.

For the experiment, the system named is FLU A (PR/8/34). Description: Flu A Neuraminidase Antiviral Assay. The format is cell-based.

As usually defined, the EC50 is the midpoint of the concentration-response curve. A lower EC50 goes with an effect from little substance. In turn, `Cc1ccccc1C1C(CCC(F)(F)F)CCC2N(C)C(=O)c3c(O)c(=O)ccn3N12` (single isomer, unassigned) [Compound 95A, 7-hydroxy-5-methyl-1-(o-tolyl)-2-(3,3,3-trifluoropropyl)-1,2,3,4,4a,5-hexahydrodipyrido[1,2-b:2′,1′-f][1,2,4]triazine-6,8-dione] yielded an EC50 of 137 nM.

Consider `Cc1cccnc1C1(C)CCCC2N(CC(F)(F)F)C(=O)c3c(O)c(=O)ccn3N21` (single isomer, unassigned) [Compound 44B, 7-hydroxy-1-methyl-1-(3-methylpyridin-2-yl)-5-(2,2,2-trifluoroethyl)-1,2,3,4,4a,5-hexahydrodipyrido[1,2-b:2′,1′-f][1,2,4]triazine-6,8-dione], for which the concentration giving a half-maximal response (EC50) turned out to be 15.2 nM.

In the case of `Cc1ccccc1C1C(CC2CC2(F)F)CCC2N(C)C(=O)c3c(O)c(=O)ccn3N12` (single isomer, unassigned) [Compound 88A], the EC50 is over 810 nM.

Regarding `CN1C(=O)c2c(O)c(=O)ccn2N2C1CCC(O)C2(C)c1ccccc1` (centres unmarked) [Compound 137A, 2,7-dihydroxy-1,5-dimethyl-1-phenyl-1,2,3,4,4a,5-hexahydrodipyrido[1,2-b:2′,1′-f][1,2,4]triazine-6,8-dione], the EC50 was determined as 790 nM.

Compound `CCC1(c2ccccc2)CCCC2N(C)C(=O)c3c(O)c(=O)ccn3N21` (single isomer, unassigned) [Compound 22A, 1-ethyl-7-hydroxy-5-methyl-1-phenyl-1,2,3,4,4a,5-hexahydrodipyrido[1,2-b:2′,1′-f][1,2,4]triazine-6,8-dione] registered an EC50 of over 8100 nM.

`CCOC1CCC2N(C)C(=O)c3c(O)c(=O)ccn3N2C1c1ccccc1` (centres unmarked) [Compound 152B, 2-ethoxy-7-hydroxy-5-methyl-1-phenyl-1,2,3,4,4a,5-hexahydrodipyrido[1,2-b:2′,1′-f][1,2,4]triazine-6,8-dione] had an EC50 of 36.1 nM.

Under “MDCK, 48 h”, `CN1C(=O)c2c(O)c(=O)ccn2N2[C@H](c3ccccc3)[C@H](OCc3ccc(F)c(F)c3)CC[C@@H]12` [Compound 157, (1R,2R,4aS)-2-((3,4-difluorobenzyl)oxy)-7-hydroxy-5-methyl-1-phenyl-1,2,3,4,4a,5-hexahydrodipyrido[1,2-b:2′,1′-f][1,2,4]triazine-6,8-dione] registered an EC50 of 336 nM.

Compound `CN1C(=O)c2c(O)c(=O)ccn2N2C(c3ccccc3)C(Cc3ccccc3)CCC12` (single isomer, unassigned) [Compound 117A, 2-benzyl-7-hydroxy-5-methyl-1-phenyl-1,2,3,4,4a,5-hexahydrodipyrido[1,2-b:2′,1′-f][1,2,4]triazine-6,8-dione] registered an EC50 of 3530 nM.

`CC(C)CC1CC(c2ccccc2)N2C(C1)N(C)C(=O)c1c(O)c(=O)ccn12` (single isomer, unassigned) [Compound 130A, 7-hydroxy-3-isobutyl-5-methyl-1-phenyl-1,2,3,4,4a,5-hexahydrodipyrido[1,2-b:2′,1′-f][1,2,4]triazine-6,8-dione] returned an EC50 (MDCK, 48 h) of over 8100 nM.

As for `CN1C(=O)c2c(O)c(=O)ccn2N2[C@H](c3ccccc3)[C@@H](N=[N+]=[N-])CC[C@@H]12` [Compound 139, (1R,2S,4aS)-2-azido-7-hydroxy-5-methyl-1-phenyl-1,2,3,4,4a,5-hexahydrodipyrido[1,2-b:2′,1′-f][1,2,4]triazine-6,8-dione], the EC50 (MDCK, 48 h) was found to be 23.6 nM.

Regarding `CN1C(=O)c2c(O)c(=O)ccn2N2C1CCC1(CCC(F)(F)CC1)C2c1ccccc1` (single isomer, unassigned) [Compound 72B, 4,4-difluoro-7′-hydroxy-5′-methyl-1′-phenyl-3′,4′,4a′,5′-tetrahydro-1′H-spiro[cyclohexane-1,2′-dipyrido[1,2-b:2′,1′-f][1,2,4]triazine]-6′,8′-dione], a half-maximal effect (EC50) was put at 3.8 nM.

Consider `CN1C(=O)c2c(O)c(=O)ccn2N2C1CCC1(CCC(F)(F)C1)C2c1ccccc1` (single isomer, unassigned) [Compound 68B, 3,3-difluoro-7′-hydroxy-5′-methyl-1′-phenyl-3′,4′,4a′,5′-tetrahydro-1′H-spiro[cyclopentane-1,2′-dipyrido[1,2-b:2′,1′-f][1,2,4]triazine]-6′,8′-dione], for which the EC50 was over 810 nM.

`CN1C(=O)c2c(O)c(=O)ccn2N2C(c3ccccc3)C(O)CCC12` (centres unmarked) [Compound 135B, 2,7-dihydroxy-5-methyl-1-phenyl-1,2,3,4,4a,5-hexahydrodipyrido[1,2-b:2′,1′-f][1,2,4]triazine-6,8-dione] registered an EC50 of over 8100 nM.

Regarding `CN1C(=O)c2c(O)c(=O)c(-c3nnn[nH]3)cn2N2C(c3ccccc3)C(CC(F)(F)F)CCC12` (centres unmarked) [Compound 134, 7-hydroxy-5-methyl-1-phenyl-9-(1H-tetrazol-5-yl)-2-(2,2,2-trifluoroethyl)-1,2,3,4,4a,5-hexahydrodipyrido[1,2-b:2′,1′-f][1,2,4]triazine-6,8-dione], the response (MDCK, 48 h) was half-maximal at 453 nM (EC50).

`CN1C(=O)c2c(O)c(=O)ccn2N2C(c3ccccc3)C(c3ccc(F)c(F)c3F)CCC12` (single isomer, unassigned) [Compound 85B, 7-hydroxy-5-methyl-1-phenyl-2-(2,3,4-trifluorophenyl)-1,2,3,4,4a,5-hexahydrodipyrido[1,2-b:2′,1′-f][1,2,4]triazine-6,8-dione] displayed an EC50 of 9.7 nM.

For `CN1C(=O)c2c(O)c(=O)ccn2N2C(c3cccc(F)c3)CCCC12` (single isomer, unassigned) [Compound 10A, 1-(3-fluorophenyl)-7-hydroxy-5-methyl-1,2,3,4,4a,5-hexahydrodipyrido[1,2-b:2′,1′-f][1,2,4]triazine-6,8-dione], the EC50 worked out at 1610 nM.

`CCN1C(=O)c2c(O)c(=O)ccn2N2C(c3ccccc3)C(C3(C(F)(F)F)CC3)CCC12` (single isomer, unassigned) [Compound 104A, 5-ethyl-7-hydroxy-1-phenyl-2-(1-(trifluoromethyl)cyclopropyl)-1,2,3,4,4a,5-hexahydrodipyrido[1,2-b:2′,1′-f][1,2,4]triazine-6,8-dione] returned an EC50 of 8 nM.

For the compound `CCN1C(=O)c2c(O)c(=O)ccn2N2C(c3ccccc3)C(CC3(C(F)(F)F)CC3)CCC12` (single isomer, unassigned) [Compound 97A, 5-ethyl-7-hydroxy-1-phenyl-2-((1-(trifluoromethyl)cyclopropyl)methyl)-1,2,3,4,4a,5-hexahydrodipyrido[1,2-b:2′,1′-f][1,2,4]triazine-6,8-dione], the EC50 is over 810 nM.

The compound `CCCC1CCC2N(C)C(=O)c3c(O)c(=O)ccn3N2C1c1ccccc1Cl` (centres unmarked) [Compound 65A, 1-(2-chlorophenyl)-7-hydroxy-5-methyl-2-propyl-1,2,3,4,4a,5-hexahydrodipyrido[1,2-b:2′,1′-f][1,2,4]triazine-6,8-dione] showed a concentration for a half-maximal effect (EC50) of 396 nM.

`CN1C(=O)c2c(O)c(=O)ccn2N2C(c3ccccc3)CCCC12C` (single isomer, unassigned) [Compound 59B, 7-hydroxy-4a,5-dimethyl-1-phenyl-1,2,3,4,4a,5-hexahydrodipyrido[1,2-b:2′,1′-f][1,2,4]triazine-6,8-dione] came in with an EC50 of 12.1 nM.

`CN1C(=O)c2c(OCc3ccccc3)c(=O)ccn2N2C(c3ccccc3)CCCCCC12` (centres unmarked) [Compound 58A, 4-(benzyloxy)-6-methyl-12-phenyl-6,6a,7,8,9,10,11,12-octahydropyrido[1′,2′:1,6][1,2,4]triazino[2,3-a]azocine-3,5-dione]: for the setting “MDCK, 48 h”, the EC50 is over 8100 nM.

In the case of `CN1C(=O)c2c(O)c(=O)ccn2N2C(c3ccccc3)C(CCC3CC3)CCC12` (single isomer, unassigned) [Compound 115D, 2-(2-cyclopropylethyl)-7-hydroxy-5-methyl-1-phenyl-1,2,3,4,4a,5-hexahydrodipyrido[1,2-b:2′,1′-f][1,2,4]triazine-6,8-dione], the concentration giving a half-maximal response (EC50) came out at 6.9 nM.

Consider `CC(C)O[C@@H]1CC[C@H]2N(C)C(=O)c3c(O)c(=O)ccn3N2[C@@H]1c1ccccc1` [Compound 156, (1R,2R,4aS)-7-hydroxy-2-isopropoxy-5-methyl-1-phenyl-1,2,3,4,4a,5-hexahydrodipyrido[1,2-b:2′,1′-f][1,2,4]triazine-6,8-dione], for which, under “MDCK, 48 h”, the EC50 is 38 nM.

On to `CN1C(=O)c2c(O)c(=O)ccn2N2C(c3ccccc3)C(CCC(F)F)CCC12` (single isomer, unassigned) [Compound 124B, 2-(3,3-difluoropropyl)-7-hydroxy-5-methyl-1-phenyl-1,2,3,4,4a,5-hexahydrodipyrido[1,2-b:2′,1′-f][1,2,4]triazine-6,8-dione], for which the EC50 was found to be 1.6 nM.

As to `CN1C(=O)c2c(O)c(=O)ccn2N2C(c3ccccc3)CCCC12` (single isomer, unassigned) [Compound 1B, 7-hydroxy-5-methyl-1-phenyl-1,2,3,4,4a,5-hexahydrodipyrido[1,2-b:2′,1′-f][1,2,4]triazine-6,8-dione], the EC50 is 39.6 nM.

`CN1C(=O)c2c(O)c(=O)ccn2N2C(c3ccccc3)CCC12` (centres unmarked) [Compound 60B, 6-hydroxy-4-methyl-1-phenyl-2,3,3a,4-tetrahydro-1H-pyrido[2,1-f]pyrrolo[1,2-b][1,2,4]triazine-5,7-dione] came in with an EC50 (MDCK, 48 h) of 884 nM.

As for `CN1C(=O)c2c(O)c(=O)ccn2N2C1CCC(O)C2(C)c1ccccc1` (centres unmarked) [Compound 137B, 2,7-dihydroxy-1,5-dimethyl-1-phenyl-1,2,3,4,4a,5-hexahydrodipyrido[1,2-b:2′,1′-f][1,2,4]triazine-6,8-dione], the EC50 was over 8100 nM.

Compound `CCN1C(=O)c2c(O)c(=O)ccn2N2C(c3ccccc3F)C(CCC(F)F)CCC12` (single isomer, unassigned) [Compound 101B, 2-(3,3-difluoropropyl)-5-ethyl-1-(2-fluorophenyl)-7-hydroxy-1,2,3,4,4a,5-hexahydrodipyrido[1,2-b:2′,1′-f][1,2,4]triazine-6,8-dione] registered an EC50 of 5.6 nM.

Compound `CN1C(=O)c2c(O)c(=O)ccn2N2C1CCC1(CCC(C(F)(F)F)CC1)C2c1ccccc1` (single isomer, unassigned) [Compound 73C, 7′-hydroxy-5′-methyl-1′-phenyl-4-(trifluoromethyl)-3′,4′,4a′,5′-tetrahydro-1′H-spiro[cyclohexane-1,2′-dipyrido[1,2-b:2′,1′-f][1,2,4]triazine]-6′,8′-dione] gave an EC50 of 105 nM.

For the origin of these results see patent US20240018145A1, “[…]-DEPENDENT EN[…] TREATING OR […]” (priority 2020, published 2024).
